“Also recorded” adds a separate entry of the source.
Legend:
Assay type in all cases: in vivo, mouse
[1] = test system: mice receiving a controlled cortical impact traumatic brain injury (TBI); experiment: Morris water maze after controlled cortical impact TBI; settings: for escape latency / acquisition of the task (learning component), Morris water maze / probe day 24-hour task retention (recall component), Morris water maze: treated post-TBI daily by oral gavage, 2% in SSV; for escape latency / acquisition of the task (learning component), Morris water maze: 0.1 ml per 10 g, training on dosing days 24-29; for probe day 24-hour task retention (recall component), Morris water maze: dosing day 30
Protocol: Trehalose (Sigma) has a generous safety profile in rodents and humans has been posted as “Generally Regarded as Safe” (GRAS) for human consumption by the U.S. Federal Drug Administration (FDA) in October 2000, is used as a food additive, and is also an excipient in many pharmaceuticals, making trehalose a safe, natural and pharmaceutically accepted product. In this study, it was supplied as a 2% w/v in standard suspension vehicle (SSV) solution via oral gavage at a dose of 0.1 ml to 10 g body weight. SSV solution was purchased from Sigma and contains 0.9% sodium chloride (NaCl), 0.5% Sodium carboxymethylcellulose (Na-CMC), 0.5% Benzyl alcohol, 0.4%, Tween 80 (polyoxyethylenesorbitan monooleate).
(§1) Surgical procedures and controlled cortical impact (CCI) have been previously described (see Portbury et al., 2015, Metallomics. doi:10.1039/c5mt00234f). Briefly, 3 month-old male C57B16 mice were anesthetized via intraperitoneal injection of 100 mg/kg ketamine and 10 mg/kg xylazine. A 10 mm mid-line incision was made over the skull, and the skin and fascia were reflected to make a 4 mm craniotomy on the central aspect of the right parietal bone using a motorized drill. Upon animal positioning in a stereotaxic frame a CCI injury was subsequently delivered (3 m/s velocity with a 1.5 mm penetration depth).
(§2) Three groups of animals were subjected to TBI as separate experiments. The first group of animals were treated daily with 2% trehalose in SSV solution at 0.1 ml per 10 g body weight via oral gavage for a period of 31 days or SSV solution following the TBI. […] The second groups of animals underwent an identical dosing procedure but were treated with either SSV or maltose as a disaccharide control for trehalose. […] A further group of animals was pre-treated with trehalose prior to TBI. These pre-treated mice received a daily treatment of 2% trehalose in SSV solution at 0.1 ml per 10 g body weight via oral gavage for 7 days prior to TBI. Following TBI, these animals received SSV solution only for the remaining duration of the experiment.
(§3) The Morris Water Maze (MWM) was used to assess the effect of trehalose on spatial learning and memory function following TBI. The pre-training acclimation day of the water maze was performed on day 23 of dosing, followed by six days of place discrimination training of four 90 second trials per day, conducted on days 24-29 of dosing. The probe trial was performed 24 hours after training on dosing day 30 to assess retention of the task. Data was analysed using the Ethovision automated tracking system. Animals were culled on day 31. Both experimental groups adhered to the same time lines of behavioral assessment. The open field assessment was performed on day 19 of dosing and the Y-maze assessment was performed on day 21 of dosing.
(§4) For LA-ICPMS samples, statistical analysis was carried out in Prism 7 (Graph-Pad) software. Analysis was carried out with a two-tailed t test with the level of significance set at p=0.05. For multiple comparisons two-way ANOVA was used to identify significant differences between ipsilateral and contralateral ROI's. For western blot analysis, images were produced using Image Studio Lite (version 4.0.21, LI-COR Biosciences) and subsequent statistical analysis was carried out in Prism 7 (Graph-Pad). All behavioral analysis was performed using Prism 7 (Graph-Pad).

[2] = test system: mice receiving a controlled cortical impact traumatic brain injury (TBI); experiment: Y-maze assessment after TBI; settings: for five-minute frequency of visits into the novel arm, Y-maze / one-minute duration of time in the novel arm, Y-maze / one-minute frequency of visits into the novel arm, Y-maze: treated post-TBI, dosing day 21, vs SSV
Protocol: as §1, §2, §3, §4

[3] = test system: mice receiving a controlled cortical impact traumatic brain injury (TBI); experiment: Open field assessment after TBI; settings: treated post-TBI, dosing day 19, vs SSV control
Protocol: as §1, §2, §3, §4

[4] = test system: mice receiving a controlled cortical impact traumatic brain injury (TBI); experiment: Volumetric analysis of cortical tissue loss after TBI; settings: treated after TBI; vs controls
Protocol: as §1, §2

LC3 = experiment: Autophagy by LC3 western blot after TBI; settings: between trehalose, SSV and maltose treated groups after TBI
Protocol: as §2
For the behaviorally assessed animals the cortex and hippocampus of both ipsilateral and contralateral hemispheres were homogenized in 15 volumes of ice-cold PBS containing Complete Protease Inhibitor Cocktail tablets (Roche Applied Science, Indianapolis, Ind., USA) and subsequently centrifuged (100,000×g) for 30 minutes at 4° C. Supernatant was removed to yield the soluble fraction (S1). […] Protein concentrations were determined using Pierce BCA protein assay (Pierce Biotechnology, Rockford, Ill., USA) to ensure equal loading of 10 μg protein samples on gel. […]

synaptophysin [5] = experiment: Western blot of brain tissue after TBI: synaptophysin
Protocol: as §2
(§5) For the behaviorally assessed animals the cortex and hippocampus of both ipsilateral and contralateral hemispheres were homogenized in 15 volumes of ice-cold PBS containing Complete Protease Inhibitor Cocktail tablets (Roche Applied Science, Indianapolis, Ind., USA) and subsequently centrifuged (100,000×g) for 30 minutes at 4° C. Supernatant was removed to yield the soluble fraction (S1). Remaining pellet underwent further extraction via 30 minutes of vigorous agitation in above mentioned homogenization buffer containing 2% (vol/vol) Triton X100. Insoluble material was pelleted via centrifugation (20,000×g) for 20 minutes, and supernatant was retained as the membrane fraction (P1). Protein concentrations were determined using Pierce BCA protein assay (Pierce Biotechnology, Rockford, Ill., USA) to ensure equal loading of 10 μg protein samples on gel. Samples were prepared for PAGE by the addition of 4× protein sample loading buffer (LICOR, Lincoln, Nebr., USA) and 10× NuPAGE sample reducing agent (to a final 1× concentration). Samples were heated to 70° C. for 10 min, loaded onto Bolt 4-12% Bis-Tris Plus gels (Invitrogen-Life Technologies, Grand Island, N.Y., USA) along with Licor One-Color protein molecular weight markers (LICOR, Lincoln, Nebr., USA) and run at 125 V for 60 min in appropriately diluted Bolt MES SDS 20× running buffer (Invitrogen-Life Technologies, Grand Island, N.Y., USA). Gels were transferred to Immobilon—PF, PVDF membrane (Millipore) using the Invitrogen Bolt wet-gel Transfer Device (Invitrogen-Life Technologies, Grand Island, N.Y., USA) at 15 V for 60 min in appropriately diluted 20× Bolt transfer buffer (Invitrogen-Life Technologies, Grand Island, N.Y., USA). […] Blots were rinsed in TBST and incubated with appropriate secondary antibody (1 h, RT), followed by further rinsing and imaged using a LI-COR Odyssey Imaging system (LI-COR Biosciences, Lincoln Nebr., USA), and analysed with Image Studio Lite software (LI-COR Biosciences, Lincoln Nebr., USA). […]

doublecortin (DCX) [6] = experiment: Western blot of brain tissue after TBI: doublecortin
Protocol: as §2, §5

Pro-BDNF = experiment: Western blot of brain tissue after TBI: Pro-BDNF
Protocol: as §2
as §5, with “concentration).” for “concentration). Samples were heated to 70° C. for 10 min, loaded onto Bolt 4-12% Bis-Tris Plus gels (Invitrogen-Life Technologies, Grand Island, N.Y., USA) along with Licor One-Color protein molecular weight markers (LICOR, Lincoln, Nebr., USA) and run at 125 V for 60 min in appropriately diluted Bolt MES SDS 20× running buffer (Invitrogen-Life Technologies, Grand Island, N.Y., USA). Gels were transferred to Immobilon—PF, PVDF membrane (Millipore) using the Invitrogen Bolt wet-gel Transfer Device (Invitrogen-Life Technologies, Grand Island, N.Y., USA) at 15 V for 60 min in appropriately diluted 20× Bolt transfer buffer (Invitrogen-Life Technologies, Grand Island, N.Y., USA).”

[7] = test system: brain derived neurotrophic factor (BDNF); experiment: Western blot of brain tissue after TBI: BDNF
Protocol: as §2
as §5, with “concentration).” for “concentration). Samples were heated to 70° C. for 10 min, loaded onto Bolt 4-12% Bis-Tris Plus gels (Invitrogen-Life Technologies, Grand Island, N.Y., USA) along with Licor One-Color protein molecular weight markers (LICOR, Lincoln, Nebr., USA) and run at 125 V for 60 min in appropriately diluted Bolt MES SDS 20× running buffer (Invitrogen-Life Technologies, Grand Island, N.Y., USA). Gels were transferred to Immobilon—PF, PVDF membrane (Millipore) using the Invitrogen Bolt wet-gel Transfer Device (Invitrogen-Life Technologies, Grand Island, N.Y., USA) at 15 V for 60 min in appropriately diluted 20× Bolt transfer buffer (Invitrogen-Life Technologies, Grand Island, N.Y., USA).”

Tg2576 transgenic mice = experiment: Morris water maze in Tg2576 Alzheimer's disease model
Protocol: (§6) Transgenic Tg2576 mice were treated daily with 2% trehalose (0.1 ml/10 g body weight) in SSV (Sigma)(n=15, average age 16.2±3 months of age) via oral gavage or SSV (saline vehicle suspension) (n=12, 16±3 months of age). Mice were dosed for a period of 31 days, with the Morris water maze commencing on day 23 of dosing. Mice were culled on day 31, and DCX and synaptophysin expression were assessed.

synaptophysin [8] = experiment: Synaptophysin expression in Tg2576 brain
Protocol: as §5, with “USA).” for “USA). Gels were transferred to Immobilon—PF, PVDF membrane (Millipore) using the Invitrogen Bolt wet-gel Transfer Device (Invitrogen-Life Technologies, Grand Island, N.Y., USA) at 15 V for 60 min in appropriately diluted 20× Bolt transfer buffer (Invitrogen-Life Technologies, Grand Island, N.Y., USA).”
as §6, with “Mice were dosed for a period of 31 days, with the Morris water maze commencing on day 23 of dosing.” left out

doublecortin (DCX) [9] = experiment: Doublecortin expression in Tg2576 brain; settings: Tg2576 hippocampus; vs SSV littermates
Protocol: as §5, with “concentration).” for “concentration). Samples were heated to 70° C. for 10 min, loaded onto Bolt 4-12% Bis-Tris Plus gels (Invitrogen-Life Technologies, Grand Island, N.Y., USA) along with Licor One-Color protein molecular weight markers (LICOR, Lincoln, Nebr., USA) and run at 125 V for 60 min in appropriately diluted Bolt MES SDS 20× running buffer (Invitrogen-Life Technologies, Grand Island, N.Y., USA). Gels were transferred to Immobilon—PF, PVDF membrane (Millipore) using the Invitrogen Bolt wet-gel Transfer Device (Invitrogen-Life Technologies, Grand Island, N.Y., USA) at 15 V for 60 min in appropriately diluted 20× Bolt transfer buffer (Invitrogen-Life Technologies, Grand Island, N.Y., USA).”

[10] = pre-treated 7 days before TBI, vs SSV littermates
[11] = contralateral cortex, vs SSV and maltose
[12] = contralateral cortex, vs SSV and maltose, listed as Trehalose
[13] = contralateral hippocampus or ipsilateral cortex and hippocampus

OC[C@H]1O[C@H](O[C@H]2[C@H](O)[C@@H](O)C(O)O[C@@H]2CO)[C@H](O)[C@@H](O)[C@@H]1O (mixture of isomers) [maltose]
escape latency / acquisition of the task (learning component), Morris water maze ([1]; vs SSV controls): no such improvement; also recorded: no significant differences
probe day 24-hour task retention (recall component), Morris water maze ([1]; vs SSV controls): no such improvement; also recorded: no significant differences
five-minute frequency of visits into the novel arm, Y-maze [2]: no significant preference for the novel arm; also recorded: no significant improvement
one-minute duration of time in the novel arm, Y-maze [2]: no significant improvement
one-minute frequency of visits into the novel arm, Y-maze [2]: no significant preference for the novel arm; also recorded: no significant improvement

OC[C@H]1O[C@H](O[C@H]2O[C@H](CO)[C@@H](O)[C@H](O)[C@H]2O)[C@H](O)[C@@H](O)[C@@H]1O [trehalose]
learning component, Morris water maze ([1]; pre-treated 7 days before TBI with 2% oral gavage, SSV only after TBI, vs SSV controls): outperformed SSV controls in the learning (FIG. 1a) component of the water maze trial, although not significantly
recall component, Morris water maze ([1]; pre-treated 7 days before TBI with 2% oral gavage, SSV only after TBI, vs post-treated mice and SSV controls): significantly outperform trehalose post-treated mice and SSV controls
escape latency / acquisition of the task (learning component), Morris water maze ([1]; vs SSV controls): overall significant performance improvement
probe day 24-hour task retention (recall component), Morris water maze ([1]; vs SSV controls): overall significant performance improvement; also recorded: significant improvement in memory
ambulatory time, open field [3]: significant increase
ambulatory velocity, open field [3]: no significant difference
total ambulatory distance, open field [3]: significant increase
vertical counts, open field [3]: significant increase
ambulatory velocity, open field ([3]; listed as Trehalose): without a significant increase
five-minute frequency, Y-maze [2, 10]: performed significantly better
one-minute duration, Y-maze [2, 10]: performed significantly better
one-minute frequency, Y-maze [2, 10]: performed significantly better
five-minute duration, Y-maze ([2]; pre-treated 7 days before TBI, vs post-treatment and SSV mice): significantly outperformed both the trehalose post-treatment and SSV treated mice
five-minute frequency of visits into the novel arm, Y-maze [2]: significantly enhanced
one-minute duration of time in the novel arm, Y-maze [2]: significantly greater duration of time in the novel arm; also recorded: significant overall duration of time in the novel arm
one-minute frequency of visits into the novel arm, Y-maze [2]: significantly enhanced
five-minute frequency of visits into the novel arm, Y-maze ([2]; listed as Trehalose): significant overall frequency of visitation preference for the novel arm
one-minute frequency of visits into the novel arm, Y-maze ([2]; listed as Trehalose): significant overall frequency of visitation preference for the novel arm
cortical tissue loss [4]: no difference
enhancement in autophagy (LC3) (LC3): not detectable
synaptophysin protein expression (synaptophysin [5]; contralateral cortex, 31 days post-TBI, vs SSV and maltose controls): significantly elevated expression
synaptophysin protein expression (synaptophysin [5]; contralateral cortex, 31 days post-TBI, vs SSV and maltose controls, listed as Trehalose): significantly increased
synaptophysin protein expression (synaptophysin [5]; contralateral hippocampus, ipsilateral cortex and hippocampus): no significant elevation
synaptophysin protein expression (synaptophysin [5]; ipsilateral hippocampus, vs control groups): non-significant elevation
DCX protein (doublecortin (DCX) [6]; contralateral cortex, vs SSV and maltose controls): significant increase
DCX protein (doublecortin (DCX) [6]; contralateral cortex, vs SSV and maltose controls, listed as Trehalose): significantly increases
DCX protein (doublecortin (DCX) [6]; contralateral hippocampus or ipsilateral cortex and hippocampus, vs control groups): absence of elevated DCX
DCX expression (doublecortin (DCX) [6]; ipsilateral cortex and hippocampus, vs SSV and maltose controls): significantly decreased
pro-BDNF protein (Pro-BDNF; [11]): significant increase
pro-BDNF protein (Pro-BDNF; [12]): significantly increased
pro-BDNF protein (Pro-BDNF; [13]): not significantly elevated
BDNF protein [7, 11]: significant increase
BDNF protein [7, 12]: significantly increased
BDNF protein [7, 13]: not significantly elevated
cognitive improvement in the Morris water maze (Tg2576 transgenic mice; 2% trehalose daily oral gavage for 31 days): significant cognitive improvement
escape latency, Morris water maze (Tg2576 transgenic mice; 2% trehalose daily oral gavage for 31 days, vs Tg2576 SSV littermates): significant decrease
time spent in the relevant quadrant, Morris water maze (Tg2576 transgenic mice; 2% trehalose daily oral gavage, vs SSV littermates): significant (p<0.0003) increase
synaptophysin protein expression (synaptophysin [8]; Tg2576 cortex, trehalose vs SSV): no significant difference
synaptophysin protein expression (synaptophysin [8]; Tg2576 hippocampus, vs SSV littermates): increased
synaptophysin protein expression (synaptophysin [8]; Tg2576 hippocampus, vs SSV littermates, listed as Trehalose): significant increase
DCX protein expression (doublecortin (DCX) [9]): increased; also recorded: significant (p<0.0401) increase
